Data on one compound can be found in US20120177690A1, “USE OF RAPAMYCIN DERIVATIVES IN VASCULOPATHIES AND XENOTRANSPLANTATION” (Novartis AG, priority 1996, published 2012).

For series [1], the system named is kidney allograft. Nature of the series: Chronic allograft rejection, rat kidney allograft model (DA to Lewis). In kind it is in vivo. As for the experimental part: The kidney of a male DA (RTI^a) rat is orthotopically transplanted into a male Lewis (RTI^1) recipient. In total 24 animals are transplanted. All animals are treated with cyclosporine A at 7.5 mg/kg/day per as for 14 days starting on the day of transplantation, to prevent acute cellular rejection. Contralateral nephrectomy is not performed. Each experimental group treated with a distinct dose of a compound of formula I or placebo comprises six animals.
Starting at day 53-64 after transplantation, the recipient animals are treated per os for another 69-72 days with a compound of formula I or receive placebo. At 14 days after transplantation animals are subjected to graft assessment by magnetic resonance imaging (MRI) with perfusion measurement of the kidneys (with comparison of the grafted kidney and the own contralateral kidney). This is repeated at days 53-64 after transplantation and at the end of the experiment. The animals are then autopsied. Rejection parameters such as MRI score, relative perfusion rate of the grafted kidney and histologic score of the kidney allograft for cellular rejection and vessel changes are determined and statistically analyzed. Administration of a compound of formula I, e.g. Compound A, at a dose of 0.5 to 2.5 mg/kg in this rat kidney allograft model yields a reduction in all above mentioned rejection parameters.

Series [2] deals with aorta allograft. The experiment in a line: Aorta transplantation in the rat (DA to Lewis). The format is in vivo. The note with it: per os in microemulsion, 2.5 mg/kg/day for 7 weeks and 0.63-5.0 mg/kg/day for 11 weeks. As to the method:
These include infiltration into the adventitia of mononuclear cells (lymphocytes, macrophages, some plasma cells), and thickening of the intima.
Donor aorta between the branch of the renal artery and the start of the caudal mesenteric aorta, about 1 cm in length, is harvested from a male DA (RTI^a) rat and transplanted orthotopically in a male Lewis (RTI^1) rat. Weekly after transplantation, the body weight is recorded. At autopsy, the graft with part of the aorta of the recipient just above and below the transplant is removed. It is perfused ex vivo with phosphate-buffered saline supplemented with 2% paraformaldehyde and 2.5% glutaraldehyde for about 2 minutes, then for 24 hours fixed by immersion fixation in the same solution, and thereafter fixed in 4% buffered formalin. Pieces of the graft are embedded in paraffin, in such a way that both a transversal section and a longitudinal section is made of the grafted aorta and the recipient's own aorta.
Sections of 4 μm thickness are stained by hematoxylin-eosin, elastica-von-Gieson and periodic-acid-Schiff. Apart from conventional light microscopy, images are recorded by confocal laser scanning microscopy. From each section, four areas are scanned, and from each area the thickness of the intima and intima+media is measured at five locations. […]

Series [3] relates to carotid artery. Nature of the series: Angioplasty, balloon catheter injury of the left common carotid artery. In kind it is in vivo, RoRo rats. The note with it: for inhibition of neointima formation: day -3 to day +14. As to the method: Studies on angioplasty are done in the model of balloon catheter injury: Balloon catheterization is performed on day 0, essentially as described by Powell et al. (1989). Under Isofluorane anaesthesia, a Fogarty 2 F catheter is introduced into the left common carotid artery via the external carotid and inflated (distension≈10 μl H2O). The inflated balloon is withdrawn along the length of the common carotid three times, the latter two times whilst twisting gently to obtain a uniform de-endothelialization. The cathethcr is then removed, a ligature placed around the external carotid to prevent bleeding and the animals allowed to recover.
2 groups of 12 RoRo rats (400 g. approximately 24 weeks old) are used for the study: one control group and one group receiving the compound of formula I. The rats are fully randomized during all handling, experimental procedures and analysis.
The compound to be tested is administered p.o. (gavage) starting 3 days before balloon injury (day −3) until the end of the study, 14 days after balloon injury (day +14). Rats are kept in individual cages and allowed food and water ad libidum.
The rats are then anaesthetized with Isofluorane, a perfusion catheter inserted through the left ventricle and secured in the aortic arch, and an aspiration cannula inserted into the right ventricle. […] The perfusion pressure is 150 mmHg at the tip of the cannula (≈100 mmHg in the carotid artery), as determined in a preliminary experiment by introducing a cannula attached to a pressure transducer into the external carotid). […]
Sections 1-2 μm thick are cut from the middle section of each carotid with a hard metal knife on a rotary microtome and stained for 2 min with Giemsa stain. About 5 sections from each carotid are thus prepared and the cross-sectional area of the media, neointima and the lumen morphometrically evaluated by means of an image analysis system (MCID, Toronto, Canada).

Series [4] deals with hamster heart xenograft. The experiment in a line: In vivo heart xenotransplantation (hamster-to-rat). From the text:
The hamster-into-rat xenograft combination is a so-called difficult concordant combination. […] This is visualized in histology by destruction of blood vessels, exsudation and extravasation of erythrocytes, and influx by polymorpho- nuclear granulocytes: often there are signs of hemorrhage and thrombosis. […] This is visualized in histology by influx of mononuclear cells, including lymphocytes, lymphoblastoid cells, and macrophages, and destruction of the myocyte parenchyma. The inhibition of cellular rejection requires more immuno-suppression than that of allografts. Congenitally athymic (mu/mu) rats lack a competent (thymus-dependent) cellular immune system and generally are unable to reject allografts.
The graft is monitored daily by palpation of the abdomen. Rejection is concluded in case of cessation of heart beat. Animals are weighed weekly. In the present series of experiments, the endpoint is set to 28 days. Animals are subjected to autopsy; apart from the graft, weight and histology is assessed for thymus, spleen, liver, seminal vesicles and testes. Blood is taken and processed to serum for the determination of cytolytic anti-hamster erythrocyte antibody and hemolytic complement activity.

The nature of series [5]: 4-week toxicity study in rats. In kind it is in vivo. As for the experimental part: (§1) Compounds of formula I are well tolerated at dosages required for use in accordance with the present invention. For example, the NTEL for Compound A in a 4-week toxicity study is 0.5 mg/kg/day in rats and 1.5 mg/kg/day in monkeys.
Series [6] in a line: 4-week toxicity study in monkeys. In kind it is in vivo. As for the experimental part:
as §1

[7] abbreviates: 2.5 mg/kg/day per os, vs placebo group.

Structures are written as SMILES.

As to `CO[C@H]1C[C@@H]2CC[C@@H](C)[C@@](O)(O2)C(=O)C(=O)N2CCCC[C@H]2C(=O)O[C@H]([C@H](C)C[C@@H]2CC[C@@H](OCCO)[C@H](OC)C2)CC(=O)[C@H](C)/C=C(\C)[C@@H](O)[C@@H](OC)C(=O)[C@H](C)C[C@H](C)/C=C/C=C/C=C/1C` [Compound A, 40-O-(2-hydroxy)ethyl-rapamycin], in series [1] (setting [7]), the “MRI score of rejection” value is “significantly lower”; the “histologic score for cellular rejection and vessel changes” value is reported as “significantly lower”; the “reduction in perfusion rate assessed by MRI” value is reported as “significantly lower”. The “rejection parameters (MRI score, relative perfusion rate of the grafted kidney, histologic score for cellular rejection and vessel changes)” value in series [1] (dose of 0.5 to 2.5 mg/kg per os, from day 53-64 after transplantation for 69-72 days) is on record as “reduction”. In addition, in series [2], the graft infiltration entry is “significantly inhibit” and the neointima formation entry was “significantly inhibit”. Moreover, in series [3] (0.5 mg/kg p.o. daily), the “inhibition of neointima formation” value turned out to be 50%. Moreover, in series [3] (2.5 mg/kg p.o. daily), the “inhibition of neointima formation” value is given as 75%. Moreover, the intimal thickening result in series [3] (p.o. day -3 to day +14, compared to the control animals) is on record as “significantly less”. Also, the graft survival entry in series [4] (athymic recipients) is listed as “prolonged graft survival”. Further, in series [4] (euthymic recipients), the graft survival entry was “prolonged graft survival”. Moreover, in series [5], the NTEL worked out at 0.5 mg/kg/day. In series [6], this compound came in with an NTEL of 1.5 mg/kg/day.
